{
  "source": "patent US20050059661A1",
  "about": "“Use of tyrosine kinase inhibitors for the treatment of inflammatory processes” (Boehringer Ingelheim International GmbH, priority 2003, published 2005)",
  "data": [
    {"tested_on": "cigarette smoke-induced influx of neutrophilic granulocytes into the lung tissue", "assay": "Test 1: Inhibition of the smoke-induced accumulation of granulocytes in the lung tissue (MPO activity)", "format": "in vivo, rats (Sprague-Dawley)", "settings": "male Sprague-Dawley rats, 5 days smoke from 8 cigarettes per day, intratracheal dose 30 min before exposure, lung tissue MPO, linear regression", "text": "(§1) • A=4-[(R)-(1-phenyl-ethyl)amino]-6-{[4-((R)-6-methyl-2-oxo-morpholin-4-yl)-1-oxo-2-buten-1-yl]amino}-7-methoxy-quinazoline, • B=4-[(3-chloro-4-fluorophenyl)amino]-6-({4-[N,N-bis-(2-methoxy-ethyl)-amino]-1-oxo-2-buten-1-yl}amino)-7-[(tetrahydrofuran-2-yl)methoxy]-quinazoline, • C=4-[(3-chloro-4-fluoro-phenyl)amino]-6-[2-(2,2-dimethyl-6-oxo-morpholin-4-yl)-ethoxy]-7-methoxy-quinazoline, • D=4-[(3-chloro-4-fluoro-phenyl)amino]-6-[2-(2,2-dimethyl-6-oxo-morpholin-4-yl)-ethoxy]-7-[(R)-(tetrahydrofuran-2-yl)methoxy]-quinazoline and • E=4-[(3-chloro-4-fluoro-phenyl)amino]-7-[2-(2,2-dimethyl-6-oxo-morpholin-4-yl)-ethoxy]-6-[(S)-(tetrahydrofuran-2-yl)methoxy]-quinazoline were tested as follows to investigate their anti-inflammatory activity: Test 1: Inhibition of the Smoke-Induced Accumulation of Granulocytes in the Lung Tissue Lung indications: Inhibition of the cigarette smoke-induced influx of neutrophilic granulocytes into the lung tissue by the EGF-receptor kinase inhibitor 4-[(R)-(1-phenyl-ethyl)amino]-6-{[4-((R)-6-methyl-2-oxo-morpholin-4-yl)-1-oxo-2-buten-1-yl]amino}-7-methoxy-quinazoline (compound A). Male rats (strain: Sprague-Dawley) weighing from 250-300 g were exposed for 5 days to the smoke from 8 cigarettes per day. The animals in the group treated with compound A, anaesthetised with isofluran, were given an intratracheal dose of 0.03 or 0.1 mg/kg of compound A in a volume of 0.05 ml each day 30 min before the start of the exposure to smoke. On the last day of the test the animals were killed 4 hours after the last exposure to smoke and the lung tissue was removed. A sample of 70-200 mg was taken from each lung and placed in a test tube prepared with 1 ml of 0.5% hexadecyltrimethylammonium bromide. The samples were homogenised for 15 sec using an Ultraturrax. The homogenised samples were centrifuged at 15700 g in an Eppendorf bench centrifuge for 5 min at ambient temperature. […] of the supernatant was removed and mixed with […] of phosphate buffer (50 mmol/l) containing 0.197 mg/ml of O-dianisidine dihydrochloride. After 10 minutes' incubation at ambient temperature the absorption was measured with a spectral photometer at a wavelength of 450 nm. The dosage which led to a 50% inhibition of the MPO activity (═ID50) was determined by linear regression.", "units": {"ID50 (dosage which led to a 50% inhibition of the MPO activity)": "mg/kg"}, "values": [
      {"smiles": "CC1(C)CN(CCOc2cc3ncnc(Nc4ccc(F)c(Cl)c4)c3cc2OC[C@@H]2CCCO2)CC(=O)O1", "note": "[E, 4-[(3-chloro-4-fluoro-phenyl)amino]-7-[2-(2,2-dimethyl-6-oxo-morpholin-4-yl)-ethoxy]-6-[(S)-(tetrahydrofuran-2-yl)methoxy]-quinazoline]", "ID50 (dosage which led to a 50% inhibition of the MPO activity)": 0.4},
      {"smiles": "COc1cc2ncnc(N[C@H](C)c3ccccc3)c2cc1NC(=O)C=CCN1CC(=O)O[C@H](C)C1", "note": "[A, 4-[(R)-(1-phenyl-ethyl)amino]-6-{[4-((R)-6-methyl-2-oxo-morpholin-4-yl)-1-oxo-2-buten-1-yl]amino}-7-methoxy-quinazoline]", "ID50 (dosage which led to a 50% inhibition of the MPO activity)": 0.3},
      {"smiles": "CC1(C)CN(CCOc2cc3c(Nc4ccc(F)c(Cl)c4)ncnc3cc2OC[C@H]2CCCO2)CC(=O)O1", "note": "[D, 4-[(3-chloro-4-fluoro-phenyl)amino]-6-[2-(2,2-dimethyl-6-oxo-morpholin-4-yl)-ethoxy]-7-[(R)-(tetrahydrofuran-2-yl)methoxy]-quinazoline]", "ID50 (dosage which led to a 50% inhibition of the MPO activity)": 1.1},
      {"smiles": "COCCN(CC=CC(=O)Nc1cc2c(Nc3ccc(F)c(Cl)c3)ncnc2cc1OCC1CCCO1)CCOC", "note": "(stereo not drawn) [B, 4-[(3-chloro-4-fluorophenyl)amino]-6-({4-[N,N-bis-(2-methoxy-ethyl)-amino]-1-oxo-2-buten-1-yl}amino)-7-[(tetrahydrofuran-2-yl)methoxy]-quinazoline]", "ID50 (dosage which led to a 50% inhibition of the MPO activity)": 0.2},
      {"smiles": "COc1cc2ncnc(Nc3ccc(F)c(Cl)c3)c2cc1OCCN1CC(=O)OC(C)(C)C1", "note": "[C, 4-[(3-chloro-4-fluoro-phenyl)amino]-6-[2-(2,2-dimethyl-6-oxo-morpholin-4-yl)-ethoxy]-7-methoxy-quinazoline]", "ID50 (dosage which led to a 50% inhibition of the MPO activity)": 1}
    ]},
    {"tested_on": "cigarette smoke-induced influx of neutrophilic granulocytes into the lung tissue", "assay": "Test 1: Inhibition of the smoke-induced accumulation of granulocytes in the lung tissue (MPO activity)", "format": "in vivo, rats (Sprague-Dawley)", "settings": "rats, intratracheal 0.03 or 0.1 mg/kg daily for 5 days, 30 min before smoke exposure", "text": "as §1", "values": [
      {"smiles": "COc1cc2ncnc(N[C@H](C)c3ccccc3)c2cc1NC(=O)C=CCN1CC(=O)O[C@H](C)C1", "note": "[A, 4-[(R)-(1-phenyl-ethyl)amino]-6-{[4-((R)-6-methyl-2-oxo-morpholin-4-yl)-1-oxo-2-buten-1-yl]amino}-7-methoxy-quinazoline]", "inhibition of the smoke-induced accumulation of granulocytes (myeloperoxidase content of lung tissue)": "significant (p<0.005) inhibition"}
    ]}
  ]
}
